{"source": "patent US20160331723A1", "about": "“PHARMACOLOGICAL TREATMENT OF ATTENTION DEFICIT AND/OR HYPERACTIVITY” (BIOCODEX, priority 2013, published 2016)", "key": {"[1]": {"system": "Spontaneously Hypertensive Rat (SHR)", "experiment": "Open field test, juvenile SHR rats", "format": "in vivo", "conditions": "200 mg/kg i.p., second 10 minutes period, vs vehicle, p<0.001", "description": "The inventors have examined the potential new therapeutic application of Stiripentol (STP, Diacomit®) in attention deficit and hyperactivity disorder (ADHD). For this, the effect of an acute administration of Stiripentol, on hyperactivity in rats was studied. The model chosen for this study is the Spontaneously Hypertensive Rat (SHR), a rat model that has been described as a model for hyperactivity (Sagvolden et al. (1992) Behav. Neural. Biol. 58:103-112; Sagvolden et al. (2009) Neuropharmacology 57:619-626; Davids et al. (2003) Brain Res. Brain Res. Rev. 42:1-21) and three behavioral tests were run: an open field test, an actimetry test and a grip test.\nJuvenile (25-30 days old, 80-120 g) or adolescent (40-45 days old, 140-160 g) male Wistar SHR rats or the control strain Wistar kyoto (WKY) rats, from River Germany, were used in this study. […]\nRats are placed in the middle of an open field (a closed arena of 1 m×1 m), and recorded with a videotracking system (Videotrack, Viewpoint S.A., Lyon France). […] The number of rearings and zone changes is recorded during 2 consecutive 10 minutes periods. […]\n(§1) Data are represented as the mean±standard error of mean (S.E.M.). The difference between Stiripentol and vehicle treated rats, was assessed with an ANOVA or repeated measures ANOVA (one factor repetition). […]"}, "[2]": {"system": "Wistar kyoto (WKY) rats", "experiment": "Open field test, juvenile WKY control rats", "format": "in vivo, rat", "conditions": "200 mg/kg i.p., second 10 minutes period, vs vehicle", "procedure": "(§2) Juvenile (25-30 days old, 80-120 g) or adolescent (40-45 days old, 140-160 g) male Wistar SHR rats or the control strain Wistar kyoto (WKY) rats, from River Germany, were used in this study. They were housed 2 per cage (Techniplast ref. 1291), and maintained in a 12 h light/dark cycle (light ON at 7 AM). Food and water were provided ad libitum. Rats were acclimated to the animal facilities at least 5 days before testing started. The experiments were conducted in accordance with the European Recommendations (directive 86/609/EEC) for the use and care of laboratory animals.\nRats are placed in the middle of an open field (a closed arena of 1 m×1 m), and recorded with a videotracking system (Videotrack, Viewpoint S.A., Lyon France). The arena is separated in 9 equivalent zones on the analysis software. Illumination intensity is set around 30 lux. The number of rearings and zone changes is recorded during 2 consecutive 10 minutes periods. The test is started forty five minutes after vehicle or STP injection. For juvenile rats (around 25 days old, n=30 SHR rats, n=30 WKY rats), each rat was randomly assigned to a test group and tested once. […]\nas §1"}, "[3]": {"system": "Spontaneously Hypertensive Rat (SHR)", "experiment": "Actimetry (opto-varimex), juvenile SHR rats", "format": "in vivo", "conditions": "200 mg/kg i.p., vs vehicle", "procedure": "as §2\n(§3) Animals are placed in the opto-varimex system (Plexiglas arena, 42×42 cm, Columbus Instruments, Columbus, Ohio), an automated system to quantify their activity as horizontal or vertical movements. Animals are habituated to the behavioral room for one hour before the beginning of the test, illumination intensity is around 400 lux. Activity is recorded immediately after placing the animal in the system, forty five minutes after injection, for a one hour period. Animals are assigned to a test group and tested only once. […]\nas §1"}, "[4]": {"system": "Wistar kyoto (WKY) rats", "experiment": "Actimetry (opto-varimex), juvenile WKY control rats", "format": "in vivo, rat", "conditions": "200 mg/kg i.p., vs vehicle", "procedure": "as §2, §3, §1"}, "[5]": {"system": "WKY (control) or SHR adolescent rats", "experiment": "Grip test (muscular strength)", "format": "in vivo, rat", "conditions": "WKY and SHR rats (40-45 days old), 200 mg/kg i.p., 1 hour after administration, p=0.058, listed as STP", "procedure": "The grip test measures the muscular strength of the animal. This test is used to identify myorelaxant properties of compounds. An electronic system is used (Bioseb) to measure the force developed by a rat grasping a T-shape bar with its forelimb. Five consecutive measures are taken, data are expressed as mean±standard error of mean. […] Measures are taken 60 minutes after intraperitoneal (i.p.) injection.\nStiripentol (batch 176, dissolved in 5% tween 80 in 0.9% NaCl) was administered i.p. at the dose of 200 mg/kg with an injection volume of 10 ml/kg.\nData are represented as the mean±standard error of mean (S.E.M.). The difference between Stiripentol and vehicle treated rats, was assessed with an ANOVA or repeated measures ANOVA (one factor repetition). Significance was set at p<0.05 (Sigma Stat, v3.5, SPSS, Chicago, USA)."}, "[6]": {"conditions": "several animal models; cited from earlier work"}, "[7]": {"system": "epilepsy seizures in children presenting with Dravet syndrome", "conditions": "add-on therapy to valproate and clobazam; cited from earlier work"}}}
{"smiles": "CC(C)(C)C(O)/C=C/c1ccc2c(c1)OCO2", "note": "(racemic) [Stiripentol, 1-penten-3-ol,1-(1,3-benzodioxol)-4,4-dimethyl]", "values": [{"measurement": "rearing activity in open field", "setting": "[1]; SHR juvenile rats (25 days old)", "value": "significantly decreases"}, {"measurement": "number of zone changes in open field", "setting": "[1]; SHR juvenile rats", "value": "decreased"}, {"measurement": "rearing activity in open field", "setting": "[2]", "value": "no effect"}, {"measurement": "rearing behavior in actimetry", "setting": "[3]", "value": "statistically decreases"}, {"measurement": "locomotor (ambulatory) activity in actimetry", "setting": "[4]; WKY control juvenile rats, one hour recording", "value": "no effect"}, {"measurement": "number of rearings in actimetry", "setting": "[4]; WKY juvenile rats", "value": "no effect"}, {"measurement": "strength developed in the grip test (myorelaxant effect)", "setting": "[5]", "value": "no significant effect"}, {"measurement": "anticonvulsant activity", "setting": "[6]", "value": "shown anticonvulsant activity"}, {"measurement": "efficacy in controlling epilepsy seizures (responder rate)", "setting": "[7]", "value": "demonstrated"}]}
